Results taken from US10195196B2, “1,4-disubstituted pyridazine analogs there of and methods for treating SMN-deficiency-related conditions” (NOVARTIS AG, priority 2012, dated 2019).

System: SMN protein
Experiment: cellular SMN ELISA (SMN protein elevation)
Assay type: cell-based
Settings: myoblast cell line from SMNdelta7 mouse model, 24 hours treatment; for SMN activity Fold: fold activation over DMSO control
Method: A cellular SMN ELISA was used to measure the effects of low molecular weight compounds on SMN protein elevation. Cells from a myoblast cell line derived from the SMNdelta7 mouse model (kind gift from Steve Burden, NYU) were seeded into a 384-well plate at a density of 3000 cells/well and treated with compounds for 24 hours. ELISA capture plates were prepared by coating 384-well plates (Immulon 4HBX) with 0.5 ug/mL of anti-SMN mAb (BD Science, Catalog number 610647) at 4° C. overnight. The plates were washed 5 times with 110 uL of PBS-Tween (0.05% Tween-20, PBST), blocked with 100 uL of 1% BSA in PBST for 2 hours and washed (5 times) with 100 uL of PBST. After 24 hours of compound treatment cells were lysed in a modified RIPA-buffer, on ice for 1 hour. 20 uL of lysate and 20 uL of 1% BSA were then added to the ELISA capture plates and incubated at 4° C. overnight. Plates were washed (5 times) with PBST and then incubated with 1:100 dilution of primary rabbit anti-SMN polyclonal antibody (Santa cruz, Catalog number SC-15320) at room temperature for 1 hour and subsequently washed (5 times) with 110 uL of PBST. This was followed by addition of 1:100 Goat anti-Rabbit IgG-HRP linked (Cell Signaling, Catalog number 7074) secondary antibody for 1 hour. Plates were then washed with PBST and incubated with 40 uL TMB substrate (Cell Signaling, Catalog number 7004L) at room temperature for 1-10 minutes with shaking. The reaction was stopped by addition of 40 uL of stop solution (Cell signaling, Catalog number 7002L) and absorption was measured at 450 nm. Data was reported as fold activation over DMSO control, and EC50.
ELISA assay condition 1: compound concentration range 20 nM-10 uM; ELISA assay condition 2: compound concentration 100 pM-10 uM.

[1] = ELISA condition 2: compound concentration 100 pM-10 uM
[2] = ELISA condition 1: compound concentration range 20 nM-10 uM

Compound	EC50 [1]	SMN activity Fold [1]	EC50 [2]	SMN activity Fold [2]
CN(c1ccc(-c2cc3c(cc2O)-c2[nH]ncc2C3)nn1)C1CC(C)(C)NC(C)(C)C1 [Example 35-2, 6-(6-(methyl(2,2,6,6-tetramethylpiperidin-4-yl)amino)pyridazin-3-yl)-1,4-dihydroindeno[1,2-c]pyrazol-7-ol]	10 nM	2.84 Fold		
CC1(C)CC(Oc2ccc(-c3cc4ccc(OCCN5CCOCC5)cc4cc3O)nn2)CC(C)(C)N1 [Example 20-9, 7-(2-morpholinoethoxy)-3-(6-((2,2,6,6-tetramethylpiperidin-4-yl)oxy)pyridazin-3-yl)naphthalen-2-ol]	176 nM	2.44 Fold		
CC1CC(Oc2ccc(-c3ccc(-n4cccn4)cc3O)nn2)CCN1 (single isomer, unassigned) [Example 17-6]	443 nM	2.58 Fold		
CC1(C)CC(Cc2ccc(-c3ccc(-n4cccn4)cc3O)nn2)CC(C)(C)N1 [Example 21-2, 5-(1H-pyrazol-1-yl)-2-(6-((2,2,6,6-tetramethylpiperidin-4-yl)methyl)pyridazin-3-yl)phenol]	206 nM	2.69 Fold		
Oc1cc(-n2cccn2)ccc1-c1ccc(NC2CNC2)nn1 [Example 18-3, 2-[6-(azetidin-3-ylamino)-pyridazin-3-yl]-5-pyrazol-1-yl-phenol]			660 nM	1.95 Fold
CC1(C)CC(Nc2ccc(-c3cnc4ccccc4c3)nn2)CC(C)(C)N1 [Example 1-5, 6-(quinolin-3-yl)-N-(2,2,6,6-tetramethyl-piperidin-4-yl)pyridazin-3-amine]			650 nM	2.50 Fold
CN1CC=C(c2ccc(-c3cc4ccc(O)cc4cc3O)nn2)CC1 [Example 19-6, 3-(6-(1-methyl-1,2,3,6-tetrahydropyridin-4-yl)pyridazin-3-yl)naphthalene-2,7-diol]	40 nM	2.33 Fold		
OCCN1CCN(c2ccc(-c3ccc(-n4cccn4)cc3O)nn2)CC1 [Example 18-7, 2-{6-[4-(2-hydroxy-ethyl)-piperazin-1-yl]-pyridazin-3-yl}-5-pyrazol-1-yl-phenol]	2660 nM	2.67 Fold		
CN(c1ccc(-c2ccc(-c3cnc4n3CCNC4)cc2O)nn1)C1CC(C)(C)NC(C)(C)C1 [Example 42-4, 2-(6-(methyl(2,2,6,6-tetramethylpiperidin-4-yl)amino)pyridazin-3-yl)-5-(5,6,7,8-tetrahydroimidazo[1,2-a]pyrazin-3-yl)phenol]	853 nM	2.41 Fold		
CN(c1ccc(-c2cc3ccc(C(F)F)cc3cc2O)nn1)C1CC(C)(C)NC(C)(C)C1 [Example 24-10, 7-(difluoromethyl)-3-(6-(methyl(2,2,6,6-tetramethylpiperidin-4-yl)amino)pyridazin-3-yl)naphthalen-2-ol]	113 nM	3.14 Fold		
CC1(C)C=C(c2ccc(-c3cc4ccc(O)cc4cc3O)nn2)CC(C)(C)N1 [Example 19-5, 3-(6-(2,2,6,6-tetramethyl-1,2,3,6-tetrahydropyridin-4-yl)pyridazin-3-yl)naphthalene-2,7-diol]	402 nM	2.58 Fold		
CN1CC[C@@H]2CN(c3ccc(-c4ccc(-c5ccn(C)c(=O)c5)cc4O)nn3)C[C@@H]21 [Example 43-5, 4-(3-hydroxy-4-(6-((3aR,6aR)-1-methylhexahydropyrrolo[3,4-b]pyrrol-5(1H)-yl)pyridazin-3-yl)phenyl)-1-methylpyridin-2(1H)-one]	159 nM	2.29 Fold		
CN(c1ccc(-c2ccc(-c3cnn(C)c3)cc2O)nn1)C1CC(C)(C)NC(C)(C)C1 [Example 16-2, 2-(6-(methyl(2,2,6,6-tetramethylpiperidin-4-yl)amino)pyridazin-3-yl)-5-(1-methyl-1H-pyrazol-4-yl)phenol]	15 nM	3.21 Fold		
CN(c1ccc(-c2cccc(F)c2O)nn1)C1CC(C)(C)NC(C)(C)C1 [Example 3-8, 2-fluoro-6-{6-[methyl-(2,2,6,6-tetramethyl-piperidin-4-yl)-amino]-pyridazin-3-yl}-phenol]	1580 nM	2.72 Fold		
CN(c1ccc(-c2ccc3ncccc3c2)nn1)C1CC(C)(C)NC(C)(C)C1 [Example 1-13, N-methyl-6-(quinolin-6-yl)-N-(2,2,6,6-tetramethylpiperidin-4-yl)pyridazin-3-amine]	661 nM	2.22 Fold		
CN1C(C)(C)CC(Oc2ccc(-c3ccc(-n4cccn4)cc3O)nn2)CC1(C)C [Example 17-11, 2-[6-(1,2,2,6,6-pentamethyl-piperidin-4-yloxy)-pyridazin-3-yl]-5-pyrazol-1-yl-phenol]	665 nM	3.01 Fold		
CN(c1ccc(-c2ccc(-n3cc(N)cn3)cc2O)nn1)C1CC(C)(C)NC(C)(C)C1 [Example 13-1, 5-(4-amino-1H-pyrazole-1-yl)-2-(6-(methyl(2,2,6,6-tetramethylpiperidin-4-yl)amino)pyridazin-3-yl)phenol]	20 nM	3.46 Fold		
CN(c1ccc(-c2ccc(-c3ccc(O)nc3)cc2O)nn1)C1CC(C)(C)NC(C)(C)C1 [Example 41-2]	50 nM	2.68 Fold		
CN(c1ccc(-c2ccc(-c3nc([N+](=O)[O-])c[nH]3)cc2O)nn1)C1CC(C)(C)NC(C)(C)C1 [Example 42-8, 2-(6-(methyl(2,2,6,6-tetramethylpiperidin-4-yl)amino)pyridazin-3-yl)-5-(4-nitro-1H-imidazol-2-yl)phenol]	756 nM	2.82 Fold		
CN(c1ccc(-c2c(O)cc(-c3cn[nH]c3)cc2OC(F)(F)F)nn1)C1CC(C)(C)NC(C)(C)C1 [Example 25-5, 2-(6-(methyl(2,2,6,6-tetramethylpiperidin-4-yl)amino)pyridazin-3-yl)-5-(1H-pyrazol-4-yl)-3-(trifluoromethoxy)phenol]	96 nM	2.36 Fold		
CN(c1ccc(-c2ccc(-c3ccn4ccnc4c3)cc2O)nn1)C1CC(C)(C)NC(C)(C)C1 [Example 41-19, 5-(imidazo[1,2-a]pyridin-7-yl)-2-(6-(methyl(2,2,6,6-tetramethylpiperidin-4-yl)amino)pyridazin-3-yl)phenol]	17 nM	2.62 Fold		
CN(c1ccc(-c2ccc(-c3ccccc3)nc2)nn1)C1CC(C)(C)NC(C)(C)C1 [Example 1-17, methyl-[6-(6-phenyl-pyridin-3-yl)-pyridazin-3-yl]-(2,2,6,6-tetramethyl-piperidin-4-yl)-amine]	926 nM	2.37 Fold		
CN(c1ccc(-c2c(O)cc(-c3cnn(C)c3)cc2F)nn1)C1CC(C)(C)NC(C)(C)C1 [Example 40-8, 3-fluoro-2-(6-(methyl(2,2,6,6-tetramethylpiperidin-4-yl)amino)pyridazin-3-yl)-5-(1-methyl-1H-pyrazol-4-yl)phenol]	16 nM	3.18 Fold		
CC1(C)CC(Nc2ccc(-c3cc4ccccc4cc3O)nn2)CC(C)(C)N1 [Example 3-3, 3-(6-(2,2,6,6-tetramethylpiperidin-4-ylamino)pyridazin-3-yl)naphthalen-2-ol]			64 nM	2.48 Fold
CN(c1ccc(-c2cc3ccc(CN4CCCCC4)cc3cc2O)nn1)C1CC(C)(C)NC(C)(C)C1 [Example 24-2, 3-(6-(methyl(2,2,6,6-tetramethylpiperidin-4-yl)amino)pyridazin-3-yl)-7-(piperidin-1-ylmethyl)naphthalen-2-ol]	157 nM	2.33 Fold		
CN(c1ccc(-c2cc(F)c(F)cc2O)nn1)C1CC(C)(C)NC(C)(C)C1 [Example 3-12, 4,5-difluoro-2-{6-[methyl-(2,2,6,6-tetramethyl-piperidin-4-yl)-amino]-pyridazin-3-yl}-phenol]			129 nM	2.70 Fold
Cc1nc2cc(-c3ccc(N(C)C4CC(C)(C)NC(C)(C)C4)nn3)c(O)cc2[nH]1 [Example 28-1, 2-methyl-5-(6-(methyl(2,2,6,6-tetramethylpiperidin-4-yl)amino)pyridazin-3-yl)-1H-benzo[d]imidazol-6-ol]	475 nM	3.41 Fold		
Oc1ccc2cc(-c3ccc(C4=CCNCC4)nn3)c(O)cc2c1 [Example 19-4, 3-(6-(1,2,3,6-tetrahydropyridin-4-yl)pyridazin-3-yl)naphthalene-2,7-diol]	25 nM	2.47 Fold		
